Results from ChEMBL document CHEMBL1949531, “Synthesis and antiviral activities of novel gossypol derivatives” (Bioorg Med Chem Lett, 2012).
Activity calls are given as the source filed them. The calls are words filed in the database; no cut-off is given here.

Columns and labels:
[1] = Cytotoxicity in human TZM-bl cells by MTT assay; type: cell-based
[2] = Selectivity index, ratio of CC50 for human TZM-bl cells to IC50 for HIV1 3B; type: functional
[3] = target: Neuraminidase (Influenza A virus) (UniProt B4URF0); assay: Inhibition of Influenza A virus neuraminidase up to 10 uM
Influenza A virus = assay: Antiviral activity against Influenza A virus (A/Vietnam/1194/2004(H5N1)) infected in MDCK cells assessed as inhibition of viral replication by plaque reduction assay; type: functional, organism-based
[4] = Cytotoxicity against MDCK cells by MTT assay; type: cell-based, Canis lupus familiaris; details: dog
[5] = system: Human immunodeficiency virus 1; assay: Antiviral activity against HIV1 3B infected human TZM-bl cells assessed as inhibition of viral replication at 10 uM treated 2 hrs after viral infection by luciferase reporter assay; type: functional, organism-based
Albumin = Albumin (Homo sapiens, UniProt P02768); assay: Binding affinity to human serum albumin by fluorescence quenching assay; type: ADME; details: isolated protein
[6] = Selectivity index, ratio of CC50 for MDCK cells to IC50 for Influenza A virus (A/Vietnam/1194/2004(H5N1)); type: functional
[7] = system: Human immunodeficiency virus 1; assay: Antiviral activity against HIV1 3B infected human TZM-bl cells assessed as inhibition of viral replication by luciferase reporter assay; type: functional, organism-based
[8] = system: Human immunodeficiency virus 1; assay: Antiviral activity against HIV1 3B infected human TZM-bl cells assessed as inhibition of viral replication at 10 uM treated immediately after infection by luciferase reporter assay; type: functional, organism-based
[9] = target: Human immunodeficiency virus type 1 reverse transcriptase (Human immunodeficiency virus 1) (UniProt Q72547); assay: Inhibition of HIV1 reverse transcriptase activity at 20 ug/ml
[10] = target: Human immunodeficiency virus type 1 reverse transcriptase (Human immunodeficiency virus 1) (UniProt Q72547); assay: Inhibition of HIV1 reverse transcriptase activity at 4 ug/ml
[11] = target: Human immunodeficiency virus type 1 reverse transcriptase (Human immunodeficiency virus 1) (UniProt Q72547); assay: Inhibition of HIV1 reverse transcriptase activity
[12] = target: Human immunodeficiency virus type 1 reverse transcriptase (Human immunodeficiency virus 1) (UniProt Q72547); assay: Inhibition of HIV1 reverse transcriptase activity at 0.8 ug/ml
[13] = system: Human immunodeficiency virus 1; assay: Antiviral activity against HIV1 3B infected human TZM-bl cells assessed as inhibition of viral replication at 10 uM treated 8 hrs after viral infection by luciferase reporter assay; type: functional, organism-based
[14] = Human immunodeficiency virus 1, 3B, TZM-bl, read-out: IC50

Albumin, sequence (P02768 whole entry): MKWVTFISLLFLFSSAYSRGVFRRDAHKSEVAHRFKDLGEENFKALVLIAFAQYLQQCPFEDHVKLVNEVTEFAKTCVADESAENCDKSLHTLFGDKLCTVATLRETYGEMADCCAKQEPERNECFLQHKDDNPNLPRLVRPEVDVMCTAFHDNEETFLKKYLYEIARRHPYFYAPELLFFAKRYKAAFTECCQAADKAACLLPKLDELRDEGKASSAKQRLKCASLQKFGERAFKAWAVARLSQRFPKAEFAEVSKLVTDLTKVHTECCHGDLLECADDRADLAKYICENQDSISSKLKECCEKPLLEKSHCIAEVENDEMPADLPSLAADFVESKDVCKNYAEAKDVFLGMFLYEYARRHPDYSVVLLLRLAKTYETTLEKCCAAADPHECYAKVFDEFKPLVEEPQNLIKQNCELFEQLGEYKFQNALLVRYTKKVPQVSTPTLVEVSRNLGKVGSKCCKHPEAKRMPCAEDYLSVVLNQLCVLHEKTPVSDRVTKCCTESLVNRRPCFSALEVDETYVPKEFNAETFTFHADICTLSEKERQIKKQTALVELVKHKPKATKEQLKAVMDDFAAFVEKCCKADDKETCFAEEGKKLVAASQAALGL
Neuraminidase (Influenza A virus), sequence (B4URF0 as listed by the source): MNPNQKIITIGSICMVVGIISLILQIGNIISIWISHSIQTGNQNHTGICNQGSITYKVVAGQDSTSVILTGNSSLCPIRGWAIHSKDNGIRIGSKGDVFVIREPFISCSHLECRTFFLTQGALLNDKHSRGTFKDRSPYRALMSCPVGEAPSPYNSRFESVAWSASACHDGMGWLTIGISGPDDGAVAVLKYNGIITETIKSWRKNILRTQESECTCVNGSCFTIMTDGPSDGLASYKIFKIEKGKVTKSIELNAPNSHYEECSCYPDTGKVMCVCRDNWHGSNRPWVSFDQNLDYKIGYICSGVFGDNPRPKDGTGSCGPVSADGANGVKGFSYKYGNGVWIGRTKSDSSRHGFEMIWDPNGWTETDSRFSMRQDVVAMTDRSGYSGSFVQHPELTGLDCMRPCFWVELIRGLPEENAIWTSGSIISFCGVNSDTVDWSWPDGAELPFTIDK

Row | SMILES | CC50 [1] | Ratio CC50/IC50 [2] | inhibition [3] | IC50 (Influenza A virus) | CC50 [4] | inhibition [5] | Ka (Albumin) | Ratio CC50/IC50 [6] | IC50 [7, 14] | inhibition [8] | inhibition [9] | inhibition [10] | IC50 ([7]; tzm-bl) | inhibition [11] | inhibition [12] | inhibition [13]
1 | CC[C@H](C)[C@H](N/C=C1\C(=O)C(O)=C(C(C)C)c2cc(C)c(-c3c(C)cc4c(c3O)/C(=C/N[C@H](C(=O)[O-])[C@@H](C)CC)C(=O)C(O)=C4C(C)C)c(O)c21)C(=O)[O-].[Na+].[Na+] | 64500 nM | 57.57 | inactive | 340 nM | > 42300 nM | inactive | 5.3223 ×10⁴ L/mol | >124.41 | 1120 nM | Active |  |  |  |  |  | 
2 | Cc1cc2c(c(O)c1-c1c(C)cc3c(c1O)/C(=C/N[C@@H](Cc1c[nH]c4ccccc14)C(=O)[O-])C(=O)C(O)=C3C(C)C)/C(=C/N[C@@H](Cc1c[nH]c3ccccc13)C(=O)[O-])C(=O)C(O)=C2C(C)C.[Na+].[Na+] | 48000 nM | 48.43 | inactive | 280 nM | > 35700 nM | inactive | 9.2747 ×10⁴ L/mol | >127.46 | 990 nM | Active |  |  |  |  |  | 
3 | Cc1cc2c(C(C)C)c(O)c(O)c(C=O)c2c(O)c1-c1c(C)cc2c(C(C)C)c(O)c(O)c(C=O)c2c1O [GOSSYPOL] | 9760 nM |  |  |  | 3530 nM |  | 2.3906 ×10⁵ L/mol |  |  |  | 73.2% | 76.3% | Not Active | Dose-dependent effect | inactive | 
4 | Cc1cn([C@H]2C[C@H](N=[N+]=[N-])[C@@H](CO)O2)c(=O)[nH]c1=O [ZIDOVUDINE] |  |  |  |  |  |  |  |  | 2.8 nM |  |  |  |  |  |  | Active
